Experimental data: patent publication US5631401A, “Inhibitors of protein farnesyltransferase and squalene synthase” (Abbott Laboratories, priority 1995, dated 1997)

What was measured:
[1] = target: T1, Rat brain protein farnesyltransferase (Rattus norvegicus, UniProt Q02293+Q04631); experiment: In vitro inhibition of protein farnesyltransferase (biotin-lamin substrate, scintillation proximity assay); assay type: biochemical; details: for inhibition at 10 µM: compared to uninhibited control
T1 construct: The enzyme was purified according to Reiss, Y., et al., Cell, 62: 81-88 (1990), utilizing steps one through three; from tissue; host or cells: rat brain
Method in brief: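 Protein farnesyltransferase isolated from rat brain was purified following steps one through three of the Reiss et al. method, giving a specific activity of about 10 nmol substrate farnesylated/mg enzyme/hour. Activity was measured with a commercial Amersham scintillation proximity assay kit, using biotin-lamin as the acceptor substrate and radioactive farnesyl diphosphate as the donor.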

[2] = target: T2, Rat liver microsomal squalene synthase (Rattus norvegicus, UniProt Q02769); experiment: In vitro inhibition of squalene synthase (rat liver microsomes, 3H-farnesyl diphosphate); assay type: biochemical; details: for inhibition at 1 µM: compared to controls with no test compound
T2 construct: Rat liver microsomes, the source of enzyme, were prepared; from tissue; host or cells: rat liver microsomes
T2 sequence (Q02769 1-416): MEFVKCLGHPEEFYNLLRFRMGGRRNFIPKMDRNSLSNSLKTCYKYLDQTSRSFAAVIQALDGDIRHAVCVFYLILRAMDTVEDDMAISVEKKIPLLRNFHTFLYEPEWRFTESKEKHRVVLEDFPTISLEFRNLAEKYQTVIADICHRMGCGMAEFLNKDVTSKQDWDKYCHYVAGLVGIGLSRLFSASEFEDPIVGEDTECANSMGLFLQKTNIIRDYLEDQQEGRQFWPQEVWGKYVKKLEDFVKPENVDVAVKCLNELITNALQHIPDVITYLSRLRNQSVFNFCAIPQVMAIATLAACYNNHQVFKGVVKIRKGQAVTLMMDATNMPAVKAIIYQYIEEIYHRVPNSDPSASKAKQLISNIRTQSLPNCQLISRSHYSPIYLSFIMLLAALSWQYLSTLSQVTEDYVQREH

Compound	inhibition at 10 µM [1]	inhibition at 1 µM [2]	inhibition at 1 µM ([1]; 1 μM (footnote *), read-out: % Inhibition at 1 μM (protein farnesyltransferase, values marked *))	inhibition at 10 µM ([2]; 10 μM (footnote *), read-out: % Inhibition at 10 μM (squalene synthase, values marked *))
CCCN(Cc1ccc(Oc2ccccc2)s1)C(=O)C1C(C(=O)O)C(C(=O)N(CCC)Cc2ccc(Oc3ccccc3)s2)C1C(=O)O (stereo not drawn) [Example 53, (1α,2β,3β,4α)-1,3-Di[N-propyl-N-(5-phenoxythien-2-ylmethyl)aminocarbonyl]cyclobutane-2,4-dicarboxylic acid]	69%	23%	–	–
O=C(O)[C@H]1[C@H](C(=O)N(Cc2ccccc2)Cc2ccccc2)[C@H](C(=O)O)[C@H]1C(=O)N(Cc1ccccc1)Cc1ccccc1 [Example 33, (1α,2β,3β,4α)-1,3-Di[N,N-dibenzylaminocarbonyl]cyclobutane-2,4-dicarboxylic acid]	64%	–	–	43%
CC(C)CN(Cc1ccc(Oc2ccccc2)cc1)C(=O)[C@H]1[C@H](C(=O)O)[C@H](C(=O)N(Cc2ccc(Oc3ccccc3)cc2)CC(C)C)[C@H]1C(=O)O [Example 25, (1α,2β,3β,4α)-1,3-Di(N-isobutyl-N-(4-phenoxybenzyl)aminocarbonyl)cyclobutane-2,4-dicarboxylic acid]	59%	24%	–	–
O=C(O)[C@H]1[C@H](C(=O)N(Cc2ccc(Oc3ccccc3)cc2)C2CC2)[C@H](C(=O)O)[C@H]1C(=O)N(Cc1ccc(Oc2ccccc2)cc1)C1CC1 [Example 31, (1α,2β,3β,4α)-1,3-Di[N-cyclopropyl-N-(4-phenoxybenzyl)aminocarbonyl]cyclobutane-2,4-dicarboxylic acid]	74%	23%	–	–

Now from value to compound:

inhibition at 10 µM [1]	inhibition at 1 µM [2]	inhibition at 1 µM ([1]; 1 μM (footnote *), read-out: % Inhibition at 1 μM (protein farnesyltransferase, values marked *))	inhibition at 10 µM ([2]; 10 μM (footnote *), read-out: % Inhibition at 10 μM (squalene synthase, values marked *))	Compound
68%	44%	–	–	CCCN(Cc1ccc(Nc2ccccc2)cc1)C(=O)[C@H]1[C@H](C(=O)O)[C@H](C(=O)N(CCC)Cc2ccc(Nc3ccccc3)cc2)[C@H]1C(=O)O [Example 63]
–	23%	31%	–	CSCCN(Cc1ccc(Oc2ccccc2)cc1)C(=O)C1C(C(=O)O)C(C(=O)N(CCSC)Cc2ccc(Oc3ccccc3)cc2)C1C(=O)O (stereo not drawn) [Example 69, (1α,2β,3β,4α)-1,3-Di[N-(2-methylthioethyl)-N-(4-phenoxybenzyl)aminocarbonyl]cyclobutane-2,4-dicarboxylic acid]
37%	48%	–	–	CC[C@@H](C)N(Cc1ccc(Oc2ccccc2)cc1)C(=O)[C@H]1[C@H](C(=O)O)[C@H](C(=O)N(Cc2ccc(Oc3ccccc3)cc2)[C@H](C)CC)[C@H]1C(=O)O [Example 102, (1α,2β,3β,4α)-1,3-Di[N-((2R)-Sec-butyl)-N-(4-phenoxybenzyl)aminocarbonyl]cyclobutane-2,4-dicarboxylic acid]
